The text below walks through data of patent US20230365576A1, “BRM Targeting Compounds And Associated Methods Of Use” (Prelude Therapeutics Incorporated, priority 2022, published 2023).

One test has as its target T1, SMARCA2 (Homo sapiens, UniProt P51531).
T1 construct: SMARCA2-HiBiT knock-in Hela monoclonal cell (CS302366); host or cells: HeLa (CRISPR HiBiT knock-in monoclonal line, heterozygous)
As to the kind of experiment: SMARCA2 HiBiT degradation assay in HeLa cells. As to conditions: 18 hours; for DC50: read-out: SMARCA2 IC50; for Dmax: HeLa. Type of test: cell-based. In short, it runs like this: (§1)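 Degradation measured as HiBiT luminescence (Nano-Glo lytic reagent) after 18 h compound exposure at 37° C. Cells were HeLa clones carrying heterozygous HiBiT tags on SMARCA2 or SMARCA4, 2500 per well; compounds at 3-fold serial dilution from 10 μM.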
On the technique in general: The HiBiT peptide binds its large partner to form an active luciferase.

The target of a further test is T2, SMARCA4 (Homo sapiens, UniProt P51532).
T2 construct: SMARCA4-HiBiT knock-in Hela monoclonal cell (CS3023226) were purchased from Promega; host or cells: HeLa (CRISPR HiBiT knock-in monoclonal line, heterozygous)
T2 sequence (P51532 whole entry): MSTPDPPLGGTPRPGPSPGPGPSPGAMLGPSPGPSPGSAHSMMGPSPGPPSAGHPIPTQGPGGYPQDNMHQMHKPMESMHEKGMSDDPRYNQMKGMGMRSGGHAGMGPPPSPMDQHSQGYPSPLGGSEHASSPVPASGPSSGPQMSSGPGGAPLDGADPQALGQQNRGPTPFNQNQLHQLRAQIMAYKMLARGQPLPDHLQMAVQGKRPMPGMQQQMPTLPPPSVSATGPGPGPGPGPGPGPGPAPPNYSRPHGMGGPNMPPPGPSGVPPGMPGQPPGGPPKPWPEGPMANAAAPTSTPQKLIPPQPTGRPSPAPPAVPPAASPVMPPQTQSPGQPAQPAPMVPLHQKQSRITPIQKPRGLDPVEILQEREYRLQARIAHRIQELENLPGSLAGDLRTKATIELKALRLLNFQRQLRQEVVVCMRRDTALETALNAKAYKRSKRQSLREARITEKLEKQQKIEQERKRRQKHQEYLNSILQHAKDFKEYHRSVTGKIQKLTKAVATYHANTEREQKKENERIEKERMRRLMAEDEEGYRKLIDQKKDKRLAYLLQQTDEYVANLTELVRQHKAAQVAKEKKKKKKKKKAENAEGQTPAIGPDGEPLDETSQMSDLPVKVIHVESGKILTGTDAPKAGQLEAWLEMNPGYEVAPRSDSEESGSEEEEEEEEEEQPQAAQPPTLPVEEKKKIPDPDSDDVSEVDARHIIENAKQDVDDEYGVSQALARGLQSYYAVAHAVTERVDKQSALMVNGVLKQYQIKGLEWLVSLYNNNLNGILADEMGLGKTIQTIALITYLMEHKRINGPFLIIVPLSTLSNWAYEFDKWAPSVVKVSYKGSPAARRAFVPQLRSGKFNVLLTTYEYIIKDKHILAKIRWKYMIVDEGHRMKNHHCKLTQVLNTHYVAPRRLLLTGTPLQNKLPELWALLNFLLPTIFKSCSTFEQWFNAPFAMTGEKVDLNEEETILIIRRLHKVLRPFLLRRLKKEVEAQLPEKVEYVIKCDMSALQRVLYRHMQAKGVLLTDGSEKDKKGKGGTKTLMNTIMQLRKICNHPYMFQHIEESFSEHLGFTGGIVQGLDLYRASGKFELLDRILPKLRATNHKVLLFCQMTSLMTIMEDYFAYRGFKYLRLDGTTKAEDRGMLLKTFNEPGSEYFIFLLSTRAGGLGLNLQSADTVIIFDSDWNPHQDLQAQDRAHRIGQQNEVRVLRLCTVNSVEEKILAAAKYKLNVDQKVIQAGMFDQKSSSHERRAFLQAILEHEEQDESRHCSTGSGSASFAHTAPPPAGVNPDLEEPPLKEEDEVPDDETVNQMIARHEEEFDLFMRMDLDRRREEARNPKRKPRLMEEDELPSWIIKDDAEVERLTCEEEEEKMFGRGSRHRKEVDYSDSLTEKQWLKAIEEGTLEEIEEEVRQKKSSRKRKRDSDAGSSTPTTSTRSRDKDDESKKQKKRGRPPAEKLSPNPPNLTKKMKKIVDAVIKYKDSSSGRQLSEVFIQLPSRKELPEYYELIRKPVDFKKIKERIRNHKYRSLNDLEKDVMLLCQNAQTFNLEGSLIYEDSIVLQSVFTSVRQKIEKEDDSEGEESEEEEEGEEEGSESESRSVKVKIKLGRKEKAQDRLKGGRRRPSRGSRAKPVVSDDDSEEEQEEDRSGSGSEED
As to the kind of experiment: SMARCA4 HiBiT degradation assay in HeLa cells. It is filed as cell-based. As to conditions: 18 hours; for Dmax: HeLa. In outline:
as §1

T1 sequence (P51531 whole entry): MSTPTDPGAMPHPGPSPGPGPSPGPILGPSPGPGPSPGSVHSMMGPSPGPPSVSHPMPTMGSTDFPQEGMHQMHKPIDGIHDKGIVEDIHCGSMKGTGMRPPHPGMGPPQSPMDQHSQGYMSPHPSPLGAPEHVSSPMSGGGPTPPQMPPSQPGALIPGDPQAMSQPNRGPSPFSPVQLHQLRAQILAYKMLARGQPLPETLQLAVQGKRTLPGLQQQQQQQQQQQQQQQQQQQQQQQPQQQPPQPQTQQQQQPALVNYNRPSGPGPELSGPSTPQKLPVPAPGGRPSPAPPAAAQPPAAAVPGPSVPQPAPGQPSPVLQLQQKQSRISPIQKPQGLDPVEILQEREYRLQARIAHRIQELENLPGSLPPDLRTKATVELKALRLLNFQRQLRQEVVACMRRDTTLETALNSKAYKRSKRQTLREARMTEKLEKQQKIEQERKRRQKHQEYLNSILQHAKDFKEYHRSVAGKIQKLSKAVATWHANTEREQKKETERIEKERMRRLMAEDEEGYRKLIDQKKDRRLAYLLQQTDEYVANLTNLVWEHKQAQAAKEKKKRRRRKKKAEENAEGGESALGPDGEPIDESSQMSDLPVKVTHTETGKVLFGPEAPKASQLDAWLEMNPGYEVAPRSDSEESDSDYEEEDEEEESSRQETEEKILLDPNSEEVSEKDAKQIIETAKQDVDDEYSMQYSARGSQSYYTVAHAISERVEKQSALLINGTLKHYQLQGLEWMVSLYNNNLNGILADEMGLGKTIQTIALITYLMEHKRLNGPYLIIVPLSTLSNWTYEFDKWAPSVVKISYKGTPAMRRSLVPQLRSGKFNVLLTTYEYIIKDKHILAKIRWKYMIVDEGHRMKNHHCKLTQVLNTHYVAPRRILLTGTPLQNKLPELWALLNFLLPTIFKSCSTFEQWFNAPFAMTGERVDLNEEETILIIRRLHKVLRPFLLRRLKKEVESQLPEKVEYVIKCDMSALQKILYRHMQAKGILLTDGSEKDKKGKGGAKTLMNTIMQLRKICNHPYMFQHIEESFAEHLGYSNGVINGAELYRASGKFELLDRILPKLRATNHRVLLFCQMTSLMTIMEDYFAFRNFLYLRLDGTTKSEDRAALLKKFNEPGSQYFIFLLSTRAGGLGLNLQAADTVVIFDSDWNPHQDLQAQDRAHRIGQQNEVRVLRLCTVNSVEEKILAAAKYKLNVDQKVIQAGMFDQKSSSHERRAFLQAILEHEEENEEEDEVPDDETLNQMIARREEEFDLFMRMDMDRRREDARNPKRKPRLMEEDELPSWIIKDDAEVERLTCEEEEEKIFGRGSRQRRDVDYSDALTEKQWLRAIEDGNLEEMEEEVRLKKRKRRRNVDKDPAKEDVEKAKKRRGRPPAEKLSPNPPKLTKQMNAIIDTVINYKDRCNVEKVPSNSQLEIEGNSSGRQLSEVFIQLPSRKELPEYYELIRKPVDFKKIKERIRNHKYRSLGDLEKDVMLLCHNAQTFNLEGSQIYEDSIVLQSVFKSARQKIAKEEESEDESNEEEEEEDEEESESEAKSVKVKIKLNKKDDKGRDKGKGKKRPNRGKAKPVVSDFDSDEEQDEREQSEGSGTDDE

As for `COCC12CNc3nnc(-c4cccc(F)c4O)cc3N1CCN(C(=O)N1CCN(CC3CCN(c4ccc5c(c4)C(=O)N([C@H]4CCC(=O)NC4=O)C5)CC3)CC1(C)C)C2` (single isomer, unassigned) [Example 93], the DC50 on SMARCA2 is less than 100 nM; at SMARCA4, more than 1000 nM. Besides, the Dmax (as a rule, the largest share of the target that was removed) on SMARCA2 is more than 75%; on SMARCA4, less than 50%.
The matching figures for `C[C@@H]1CN(CC2CCN(c3ccc4c(c3)C(=O)N([C@H]3CCC(=O)NC3=O)C4)CC2)C[C@H](C)N1C(=O)N1CCN2c3cc(-c4cccc(F)c4O)nnc3NCC2(C(F)(F)F)C1` (single isomer, unassigned) [Example 95]: less than 100 nM, less than 100 nM, more than 75% and more than 75%.
For the compound `C[C@@H]1CN(CC2CCN(c3ccc4c(c3)C(=O)N([C@H]3CCC(=O)NC3=O)C4)CC2)C[C@@H](C)N1C(=O)N1CCN2c3cc(-c4cccc(F)c4O)nnc3NCC2(C(F)(F)F)C1` (single isomer, unassigned) [Example 96], at SMARCA2, the DC50 was less than 100 nM and the Dmax was more than 75%. On SMARCA4, the DC50 was less than 100 nM and the “SMARCA4 DMax %” value was “A (A=Dmax>75%)”.
Take `C[C@@H]1CN(CC2CCN(c3ccc4c(c3)C(=O)N([C@H]3CCC(=O)NC3=O)C4)CC2)C[C@@H](C)N1C(=O)N1CCN2c3cc(-c4cccc(F)c4O)nnc3NCC2(C(F)(F)F)C1` (single isomer, unassigned) [Example 97]: at SMARCA2, the “SMARCA2 DMax %” value is on record as “A (A=Dmax>75%)” and the DC50 was less than 100 nM. Also, at SMARCA4, the DC50 lay in the range of 100 to 1000 nM and the “SMARCA4 DMax %” value was “C (C=Dmax<50%)”.
As for `C[C@@H]1C[C@H](CN2CCN(c3ccc4c(c3)C(=O)N([C@H]3CCC(=O)NC3=O)C4)CC2)C[C@H](C)N1C(=O)N1CCN2c3cc(-c4cccc(F)c4O)nnc3NCC2(C(F)(F)F)C1` (single isomer, unassigned) [Example 98], on SMARCA2, the DC50 is less than 100 nM and the greatest degradation seen (Dmax) is more than 75%. In addition, at SMARCA4, the DC50 was less than 100 nM and the “SMARCA4 DMax %” value was “A (A=Dmax>75%)”.
Consider `C[C@@H]1C[C@H](CN2CCN(c3ccc4c(c3)C(=O)N([C@H]3CCC(=O)NC3=O)C4)CC2)C[C@H](C)N1C(=O)N1CCN2c3cc(-c4cccc(F)c4O)nnc3NCC2(C(F)(F)F)C1` (single isomer, unassigned) [Example 99], for which, on SMARCA2, the “SMARCA2 DMax %” value is recorded as “A (A=Dmax>75%)” and the DC50 was less than 100 nM. For the same compound, on SMARCA4, the DC50 was less than 100 nM and the “SMARCA4 DMax %” value is on record as “B (B=50%<Dmax≤75%)”.
With `CC1(C)CN(CC2CCN(c3ccc4c(c3)C(=O)N([C@H]3CCC(=O)NC3=O)C4)CC2)CCN1C(=O)N1CCN2c3cc(-c4cccc(F)c4O)nnc3NCC2(C(F)(F)F)C1` (single isomer, unassigned) [Example 100], on SMARCA2, the “SMARCA2 DMax %” value is on record as “A (A=Dmax>75%)” and the DC50 is less than 100 nM. Moreover, at SMARCA4, the DC50 was less than 100 nM and the Dmax was 50 to 75%.
Consider `CC1(C)CN(CC2CCN(c3ccc4c(c3)C(=O)N([C@H]3CCC(=O)NC3=O)C4)CC2)CCN1C(=O)N1CCN2c3cc(-c4cccc(F)c4O)nnc3NCC2(C(F)(F)F)C1` (single isomer, unassigned) [Example 101], for which, on SMARCA2, the “SMARCA2 DMax %” value is listed as “B (B=50%<Dmax≤75%)” and the DC50 is less than 100 nM. Moreover, on SMARCA4, the DC50 was more than 1000 nM and the “SMARCA4 DMax %” value is on record as “C (C=Dmax<50%)”.
In the case of `CCC12CNc3nnc(-c4cc(F)cc(F)c4O)cc3N1CCN(C(=O)C1(F)CCC(CN3CCN(c4ccc5c(c4)C(=O)N([C@H]4CCC(=O)NC4=O)C5)CC3)CC1)C2` (single isomer, unassigned) [Example 102], at SMARCA2, the DC50 is less than 100 nM and the maximal degradation (Dmax) was more than 75%. Further, on SMARCA4, the DC50 is less than 100 nM and the “SMARCA4 DMax %” value is “A (A=Dmax>75%)”.
With `CCC12CNc3nnc(-c4cc(F)cc(F)c4O)cc3N1CCN(C(=O)C1(F)CCC(CN3CCN(c4ccc5c(c4)C(=O)N([C@H]4CCC(=O)NC4=O)C5)CC3)CC1)C2` (single isomer, unassigned) [Example 103], on SMARCA2, the “SMARCA2 DMax %” value is “A (A=Dmax>75%)” and the DC50 was less than 100 nM. At SMARCA4, the DC50 is less than 100 nM and the “SMARCA4 DMax %” value is “B (B=50%<Dmax≤75%)”.
Consider `CCC12CNc3nnc(-c4cccc(Cl)c4O)cc3N1CCN(C(=O)C1(F)CCN(CC3CCN(c4ccc5c(c4)C(=O)N([C@H]4CCC(=O)NC4=O)C5)CC3)CC1)C2` (single isomer, unassigned) [Example 106], for which, on SMARCA2, the DC50 was less than 100 nM and the greatest degradation seen (Dmax) is more than 75%. At SMARCA4, this compound showed a DC50 of less than 100 nM and a maximal degradation (Dmax) of more than 75%.
Regarding `CCC12CNc3nnc(-c4cccc(F)c4O)cc3N1CCN(C(=O)C1(F)CCN(CC3CCN(c4ccc5c(c4)C(=O)N([C@H]4CCC(=O)NC4=O)C5)CC3)CC1)C2` (single isomer, unassigned) [Example 107], on SMARCA2, the DC50 is less than 100 nM and the Dmax is more than 75%. In addition, on SMARCA4, the DC50 is 100 to 1000 nM and the “SMARCA4 DMax %” value is “C (C=Dmax<50%)”.
On to `CCC12CNc3nnc(-c4cccc(F)c4O)cc3N1CCN(C(=O)C1(F)CCN(CC3CCN(c4ccc5c(c4)C(=O)N([C@H]4CCC(=O)NC4=O)C5)CC3)CC1)C2` (single isomer, unassigned) [Example 108], for which, at SMARCA2, the “SMARCA2 DMax %” value is listed as “A (A=Dmax>75%)” and the DC50 is less than 100 nM. Also, on SMARCA4, the DC50 was less than 100 nM and the “SMARCA4 DMax %” value was “A (A=Dmax>75%)”.
In the case of `CCC12CNc3nnc(-c4cc(F)cc(F)c4O)cc3N1CCN(C(=O)C1(F)CCN(CC3CCN(c4ccc5c(c4)C(=O)N([C@H]4CCC(=O)NC4=O)C5)CC3)CC1)C2` (single isomer, unassigned) [Example 109], on SMARCA2, the DC50 is less than 100 nM and the Dmax was more than 75%. On SMARCA4, this compound had a DC50 of less than 100 nM and a Dmax of more than 75%.
As for `CCC12CNc3nnc(-c4cc(F)cc(F)c4O)cc3N1CCN(C(=O)C1(F)CCN(CC3CCN(c4ccc5c(c4)C(=O)N([C@H]4CCC(=O)NC4=O)C5)CC3)CC1)C2` (single isomer, unassigned) [Example 110], the DC50 at SMARCA2 and at SMARCA4 was less than 100 nM each time.
For `CC12CNc3nnc(-c4cccc(F)c4O)cc3N1CCN(C(=O)C1(F)CCN(CC3CCN(c4ccc5c(c4)C(=O)N([C@H]4CCC(=O)NC4=O)C5)CC3)CC1)C2` (single isomer, unassigned) [Example 111], at SMARCA2, the DC50 is less than 100 nM and the greatest degradation seen (Dmax) lay in the range of 50 to 75%. At SMARCA4, this compound showed a DC50 of more than 1000 nM and a Dmax of less than 50%.
As for `CC12CNc3nnc(-c4cc(F)cc(F)c4O)cc3N1CCN(C(=O)C1(F)CCN(CC3CCN(c4ccc5c(c4)C(=O)N([C@H]4CCC(=O)NC4=O)C5)CC3)CC1)C2` (single isomer, unassigned) [Example 112], on SMARCA2, the DC50 is less than 100 nM and the greatest degradation seen (Dmax) is more than 75%. On SMARCA4, the DC50 is less than 100 nM and the “SMARCA4 DMax %” value is on record as “A (A=Dmax>75%)”.
In the case of `CC12CNc3nnc(-c4cc(F)cc(F)c4O)cc3N1CCN(C(=O)C1(F)CCN(CC3CCN(c4ccc5c(c4)C(=O)N([C@H]4CCC(=O)NC4=O)C5)CC3)CC1)C2` (single isomer, unassigned) [Example 113], on SMARCA2, the “SMARCA2 DMax %” value was “A (A=Dmax>75%)” and the DC50 was less than 100 nM. In addition, at SMARCA4, the DC50 is more than 1000 nM and the “SMARCA4 DMax %” value is given as “C (C=Dmax<50%)”.
